Data as given in US5144017A, “Compounds that bind to digitalis receptor” (University of Manitoba, priority 1988, dated 1992).

What was measured:
[1] = prior art; cited from earlier work
[2] = prior art; cited from earlier work; remark: listed apart in the source
[3] = target: cardiac glycoside (CG) binding site (digitalis receptor) of heart muscle; experiment: 3H-ouabain radioligand binding assay (RBA); set-up: species or system dog; settings: for IC50: cardiac receptor of heart muscle, membranes from dog myocardium, read-out: binding / displacement potency in the 3H-ouabain RBA (IC50); for receptor potency relative to the aglycone: glucoside versus aglycone
Protocol: An extensive study has been conducted by the inventors with respect to a wide series of steroids of the pregnane and androstane type. The potencies of these steroids were determined in a ^3 H-ouabain radioligand binding assay (RBA). Past experience has indicated to the inventors that the potency of the steroids to displace the labelled cardiac glycoside (i.e. ouabain) in the assay parallel their biological activity, that is their cardiac glycoside-like activity in the ability to inhibit Na/K-ATPase and elicit characteristic cellular response.
Binding studies were carried out in a ^3 H-ouabain radioligand binding assay (RBA) generally as described by Chow et al in Br. J. Pharmac. (1979), 67, 345 to 352. The results obtained are set forth in the Examples below:
A number of progesterone derivatives, having a 17α-acetoxy group and various functions at C-3 and C-6, interact at the cardiac glycoside (CG) binding site, as measured by the RBA with membranes from dog myocardium. Experimental values are given in the Table of FIG. 4 and structures in FIG. 3. The inventors have carried out structure-activity studies concerned with modification of the A and B rings as they influence potency in the RBA. As may be seen from the data, some progesterone derivatives with 5α- or 5β-stereochemistry show receptor competing activity. Among the congeners, highest potency is associated with the presence of C-4 or C-4,6-unsaturation and a C-6 substituent (CH3, Cl, Br). The C-3 function may be carbonyl, 3β-hydroxy, 3β-acetoxy or β-D-glucoside when associated with C-4 or C-4,6 unsaturation. In compounds with other substituents that promote activity, C-6α-substitution with --CH3, --Cl or --Br strongly enhance activity, --F, --OCH3, carbonyl or the unsubstituted compound promotes weak binding, and --OC2 H5, --OAc, --OCOOCH3 or --OH eliminates binding activity. Receptor interaction with the double bond at C-4, but not C-5, appears to be particularly important for binding.

isolated heart muscle = experiment: cardiostimulation in isolated heart muscle
Excerpt: Differences in toxicity, i.e. the tolerance to increasingly-greater dosage levels before the onset of arrhythmia, exist among the various steroid glycosides.

[4] = system: canine ventricular trabeculae muscle; experiment: contractile (inotropic) response of canine ventricular trabeculae muscle
[5] = intrarenal infusion: urine volume, sodium and potassium excretion; assay type: in vivo
Excerpt: The effects of an intrarenal infusion of ouabain and 14β-hydroxyprogesterone glucoside were compared. […] This marked natriuresis and absence of kaliuresis by the cardiotonic pregnane has practical clinical implications. […]

Na/K-ATPase = settings: prior art; cited from earlier work
[6] = prior art; cited from earlier work; remark: listed apart in the source
[7] = listed as β-D-glucoside of 14β-hydroxyprogesterone

C[C@@H]1O[C@@H](O[C@H]2CC[C@@]3(C)[C@H](CC[C@@H]4[C@@H]3CC[C@]3(C)[C@@H]([C@@H](C)O)CC[C@]43N)C2)[C@H](O)[C@H](O)[C@H]1O [3β-rhamnosyloxy-14β-amino-5β-pregnane-20β-ol]
effect on cardiac contractility compared with digoxin [1]: superior, in terms of tolerance to higher dosage | potency compared with the cardiac glycosides [2]: as potent as the cardiac glycosides

CC(=O)[C@H]1CC[C@]2(O)[C@@H]3CC[C@@H]4CC(=O)CC[C@]4(C)[C@H]3CC[C@]12C [compound 3]
IC50 [3]: 60 µM | binding activity in the RBA, in words ([3]; qualitative statement): weaker than 14β-hydroxyprogesterone | cardiostimulation (isolated heart muscle): cardiostimulant

CC(=O)[C@H]1CC[C@]2(O)[C@@H]3CCC4=CC(=O)CC[C@]4(C)[C@H]3CC[C@]12C [compound 6, 14β-hydroxyprogesterone]
IC50 [3]: 10 µM | cardiostimulation (isolated heart muscle): elicits cardiostimulation

CC(=O)[C@H]1CC[C@]2(O)[C@@H]3CCC4=C[C@@H](O[C@@H]5O[C@H](CO)[C@@H](O)[C@H](O)[C@H]5O)CC[C@]4(C)[C@H]3CC[C@]12C [compound 8]
IC50 [3]: 1.8 µM | receptor potency relative to the aglycone ([3]; listed as 14β-OHP-glu): about 10 times | receptor potency relative to the aglycone [3, 7]: approximately ten | inotropic response ([4]; dose dependent): positive inotropic response | after contractions on rapid electrical stimulation (digitalis-like toxic response) ([4]; during peak inotropic response and subsequent depression): possible to elicit spontaneous after contraction(s) | contractile response at high concentrations ([4]; high concentrations): biphasic contractile response, an initial increase followed by a decrease | urine volume [5]: increased urine volume | potassium excretion ([5]; listed as 14β-OHP-glu): no influence on potassium excretion | sodium excretion ([5]; listed as 14β-OHP-glu): increased sodium excretion significantly | potassium excretion [5, 7]: little effect on potassium excretion | sodium excretion [5, 7]: increased sodium excretion

CC(=O)O[C@]1(C(C)=O)CC[C@H]2[C@@H]3C=C(Cl)C4=CC(=O)CC[C@]4(C)[C@H]3CC[C@@]21C [compound 20, 17α-acetoxy-6-chloropregna-4,6-diene-3,20-dione, reference compound]
IC50 [3]: 0.5 µM | potency in the RBA relative to ouabain ([3]; fraction of the potency of ouabain): 1/20 | affinity / potency at Na/K-ATPase (Na/K-ATPase): high affinity | effect on cardiac contractility [6]: cardiodepression or decreased contractility
